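The compound was tested at five concentrations on cells cultured in 96-well plates, with a 48-hour exposure period. GI50 = concentration required for 50% inhibition of growth.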 Activity calls are given as the source filed them. Cut-off read from the data, not from the text of the source: active = GI50 up to about 1.1 µM and inactive = higher.
Columns and labels:
Experiment in all cases: inhibition of tumour cell growth, NCI panel, 48 h
ACHN = test system: ACHN
A549 = test system: A549
NCI-H522 = test system: NCI-H522
786-0 = test system: 786-0
UACC-62 = test system: UACC-62
PC-3 = test system: PC-3
NCI-H23 = test system: NCI-H23
SK-MEL-5 = test system: SK-MEL-5
HCC 2998 = test system: HCC 2998
SK-MEL-2 = test system: SK-MEL-2
DU-145 = test system: DU-145
IGROV-1 = test system: IGROV-1
HT-29 = test system: HT-29
RPMI-8226 = test system: RPMI-8226
U-251 = test system: U-251
RXF 393 = test system: RXF 393
MDA-MB-435 = test system: MDA-MB-435
Malme-3M = test system: Malme-3M
TK-10 = test system: TK-10
A498 = test system: A498

In the case of `COC(=O)C12C(=O)CC3CCC1C32C(=O)OC` (stereo unspecified), the GI50 (ACHN) is reported as > 100 µM (inactive), the GI50 (A549) is reported as > 100 µM (inactive) and the GI50 (NCI-H522) is reported as > 100 µM (inactive). For the same compound, the GI50 (786-0) was > 100 µM (inactive), the GI50 (UACC-62) was > 100 µM (inactive) and the GI50 (PC-3) was > 100 µM (inactive). For the same compound, the GI50 (NCI-H23) was > 100 µM (inactive), the GI50 (SK-MEL-5) was > 100 µM (inactive) and the GI50 (HCC 2998) was > 100 µM (inactive). For the same compound, the GI50 (SK-MEL-2) was > 100 µM (inactive), the GI50 (DU-145) was > 100 µM (inactive) and the GI50 (IGROV-1) was > 100 µM (inactive). For the same compound, the GI50 (HT-29) was > 100 µM (inactive), the GI50 (RPMI-8226) was > 100 µM (inactive) and the GI50 (U-251) was > 100 µM (inactive). The GI50 (RXF 393) was > 100 µM (inactive), the GI50 (MDA-MB-435) was > 100 µM (inactive) and the GI50 (Malme-3M) was > 100 µM (inactive). The GI50 (TK-10) was > 100 µM (inactive).

`COc1ccc(S(=O)(=O)n2c3c(c4ccccc42)[C@@H]2[C@@H](CCCN2C(=O)C[S+]([O-])c2ccc(C)cc2)[C@H](Cl)C3)cc1` (stereo partly specified) was tested, and the GI50 (A549) was > 100 µM (inactive), the GI50 (A498) was > 100 µM (inactive) and the GI50 (NCI-H522) was > 100 µM (inactive). For the same compound, the GI50 (786-0) was > 100 µM (inactive), the GI50 (UACC-62) was > 100 µM (inactive) and the GI50 (PC-3) was > 100 µM (inactive). The GI50 (NCI-H23) was > 100 µM (inactive), the GI50 (SK-MEL-5) was > 100 µM (inactive) and the GI50 (HCC 2998) was > 100 µM (inactive). The GI50 (SK-MEL-2) was > 100 µM (inactive), the GI50 (DU-145) was > 100 µM (inactive) and the GI50 (IGROV-1) was 1.51 µM (inactive). The GI50 (HT-29) was > 100 µM (inactive), the GI50 (U-251) was > 100 µM (inactive) and the GI50 (RXF 393) was > 100 µM (inactive). The GI50 (MDA-MB-435) was > 100 µM (inactive), the GI50 (Malme-3M) was > 100 µM (inactive) and the GI50 (TK-10) was 32 µM (inactive).

In the case of `COc1cc2c(cc1OC)CC(N=[N+]=[N-])c1cc(OC)c(OC)cc1/C=C\2` (stereo unspecified), the GI50 (ACHN) is reported as 59 µM (inactive), the GI50 (A549) is reported as 38.8 µM (inactive) and the GI50 (A498) is reported as > 100 µM (inactive). For the same compound, the GI50 (NCI-H522) was 50.9 µM (inactive), the GI50 (786-0) was 34.1 µM (inactive) and the GI50 (UACC-62) was 30 µM (inactive). For the same compound, the GI50 (PC-3) was 30.8 µM (inactive), the GI50 (SK-MEL-5) was 23.8 µM (inactive) and the GI50 (HCC 2998) was 81.7 µM (inactive). The GI50 (SK-MEL-2) was 39.5 µM (inactive), the GI50 (DU-145) was > 100 µM (inactive) and the GI50 (IGROV-1) was 50.9 µM (inactive). For the same compound, the GI50 (HT-29) was 44.5 µM (inactive), the GI50 (RPMI-8226) was 35.3 µM (inactive) and the GI50 (U-251) was 51.2 µM (inactive). The GI50 (MDA-MB-435) was 10.8 µM (inactive) and the GI50 (TK-10) was > 100 µM (inactive).

`COC(=O)CCC(=O)c1ccc2c(c1)CC1(C2)Cc2ccc3c(c2C1)CCCC3=O` (stereo unspecified) was tested, and the GI50 (ACHN) was 21.1 µM (inactive), the GI50 (A549) was > 57 µM (inactive) and the GI50 (A498) was 20.7 µM (inactive). For the same compound, the GI50 (NCI-H522) was 21.4 µM (inactive), the GI50 (786-0) was 29.9 µM (inactive) and the GI50 (UACC-62) was > 26.1 µM (inactive). For the same compound, the GI50 (PC-3) was 24.3 µM (inactive), the GI50 (NCI-H23) was 31 µM (inactive) and the GI50 (SK-MEL-5) was 10.5 µM (inactive). The GI50 (HCC 2998) was 38.3 µM (inactive), the GI50 (SK-MEL-2) was 7.31 µM (inactive) and the GI50 (DU-145) was 33.7 µM (inactive). For the same compound, the GI50 (IGROV-1) was 21.9 µM (inactive), the GI50 (HT-29) was 11.2 µM (inactive) and the GI50 (U-251) was 25 µM (inactive). For the same compound, the GI50 (RXF 393) was > 53 µM (inactive), the GI50 (MDA-MB-435) was 3.73 µM (inactive) and the GI50 (Malme-3M) was 18.4 µM (inactive). For the same compound, the GI50 (TK-10) was 41 µM (inactive).

With `CCC/C=C/C=C/C1CC(O)C(O)C(=O)C1CO` (stereo unspecified) the GI50 (ACHN) was > 100 µM (inactive), the GI50 (A549) was > 100 µM (inactive) and the GI50 (NCI-H522) was 55.2 µM (inactive). The GI50 (786-0) was > 100 µM (inactive), the GI50 (UACC-62) was > 100 µM (inactive) and the GI50 (PC-3) was 51.1 µM (inactive). For the same compound, the GI50 (NCI-H23) was > 100 µM (inactive), the GI50 (SK-MEL-5) was > 100 µM (inactive) and the GI50 (HCC 2998) was > 100 µM (inactive). For the same compound, the GI50 (SK-MEL-2) was > 100 µM (inactive), the GI50 (DU-145) was > 100 µM (inactive) and the GI50 (IGROV-1) was > 100 µM (inactive). For the same compound, the GI50 (HT-29) was > 100 µM (inactive), the GI50 (RPMI-8226) was > 100 µM (inactive) and the GI50 (U-251) was > 100 µM (inactive). The GI50 (RXF 393) was > 100 µM (inactive), the GI50 (MDA-MB-435) was > 100 µM (inactive) and the GI50 (TK-10) was > 100 µM (inactive).

`CC(C)(C)C(=O)C(N)C(=O)C(C)(C)C` was tested, and the GI50 (ACHN) was > 100 µM (inactive), the GI50 (A549) was > 100 µM (inactive) and the GI50 (NCI-H522) was > 100 µM (inactive). For the same compound, the GI50 (786-0) was > 100 µM (inactive), the GI50 (UACC-62) was > 100 µM (inactive) and the GI50 (PC-3) was > 100 µM (inactive). The GI50 (SK-MEL-5) was > 100 µM (inactive), the GI50 (HCC 2998) was > 100 µM (inactive) and the GI50 (SK-MEL-2) was > 100 µM (inactive). The GI50 (DU-145) was > 100 µM (inactive), the GI50 (RPMI-8226) was > 100 µM (inactive) and the GI50 (U-251) was > 100 µM (inactive). The GI50 (RXF 393) was > 100 µM (inactive), the GI50 (MDA-MB-435) was > 100 µM (inactive) and the GI50 (Malme-3M) was > 100 µM (inactive). For the same compound, the GI50 (TK-10) was > 100 µM (inactive).

With `C[C@H](N)C(=O)N[C@@H]1[C@H]2C(=C(O)C[C@@H](O)[C@@H]2O)C(=O)O[C@]1(C)C(Cl)Cl` [BACTOBOLIN] the GI50 (ACHN) was 0.176 µM (active), the GI50 (A549) was 0.187 µM (active) and the GI50 (A498) was 0.329 µM (active). For the same compound, the GI50 (NCI-H522) was 0.16 µM (active), the GI50 (786-0) was 0.0655 µM (active) and the GI50 (UACC-62) was 0.23 µM (active). The GI50 (PC-3) was 0.232 µM (active), the GI50 (NCI-H23) was 0.183 µM (active) and the GI50 (SK-MEL-5) was 0.129 µM (active). For the same compound, the GI50 (HCC 2998) was 0.164 µM (active), the GI50 (SK-MEL-2) was 0.222 µM (active) and the GI50 (DU-145) was 0.182 µM (active). The GI50 (IGROV-1) was 0.361 µM (active), the GI50 (HT-29) was 0.155 µM (active) and the GI50 (U-251) was 0.144 µM (active). The GI50 (RXF 393) was 0.17 µM (active), the GI50 (MDA-MB-435) was 0.248 µM (active) and the GI50 (Malme-3M) was 0.278 µM (active). The GI50 (TK-10) was 0.356 µM (active).

From ChEMBL document CHEMBL1201862, “PubChem BioAssay data set” (2004)
